From ChEMBL document CHEMBL1201862, “PubChem BioAssay data set” (2004)
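These data come from cells grown in 96-well plates and exposed to compound for 48 hours at five concentrations. GI50 = concentration required for 50% inhibition of growth.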 Activity calls are given as the source filed them. Rule as the data show it: active = GI50 up to about 1.1 µM and inactive = higher.

Experiments:
Assay in all cases: inhibition of tumour cell growth, NCI panel, 48 h
SR = system: SR
MDA-MB-231 = system: MDA-MB-231
TK-10 = system: TK-10
KM12 = system: KM12
MOLT-4 = system: MOLT-4
MCF7 = system: MCF7
SN12C = system: SN12C
786-0 = system: 786-0
SNB-19 = system: SNB-19
U-251 = system: U-251
T47D = system: T47D
OVCAR-8 = system: OVCAR-8
MDA-MB-435 = system: MDA-MB-435
HCT-116 = system: HCT-116
HOP-62 = system: HOP-62
OVCAR-4 = system: OVCAR-4
CCRF-CEM = system: CCRF-CEM
HT-29 = system: HT-29
A498 = system: A498
HOP-92 = system: HOP-92

| Compound | GI50 (SR) | GI50 (MDA-MB-231) | GI50 (TK-10) | GI50 (KM12) | GI50 (MOLT-4) | GI50 (MCF7) | GI50 (SN12C) | GI50 (786-0) | GI50 (SNB-19) | GI50 (U-251) | GI50 (T47D) | GI50 (OVCAR-8) | GI50 (MDA-MB-435) | GI50 (HCT-116) | GI50 (HOP-62) | GI50 (OVCAR-4) | GI50 (CCRF-CEM) | GI50 (HT-29) | GI50 (A498) | GI50 (HOP-92) |
| --- | --- | --- | --- | --- | --- | --- | --- | --- | --- | --- | --- | --- | --- | --- | --- | --- | --- | --- | --- | --- |
| CCC1(OC(=O)CN2CCN(CCO)CC2)C(=O)OCc2c1cc1n(c2=O)Cc2cc3ccccc3nc2-1 (stereo not given) | 0.0221 µM (active) | 14.1 µM (inactive) | 8.49 µM (inactive) | 0.457 µM (active) | 0.034 µM (active) | 0.107 µM (active) | 0.125 µM (active) | 0.13 µM (active) | 0.216 µM (active) | 0.143 µM (active) | 0.212 µM (active) | 0.522 µM (active) | 1.15 µM (inactive) | 0.417 µM (active) | 0.0867 µM (active) | 1.77 µM (inactive) | 0.0324 µM (active) | 0.931 µM (active) | 0.514 µM (active) | 1.26 µM (inactive) |
| NC(=O)C1=NNc2ccccc2C(=O)N1c1ccccc1 | > 100 µM (inactive) | > 100 µM (inactive) | > 100 µM (inactive) | > 100 µM (inactive) | > 100 µM (inactive) | > 100 µM (inactive) | > 100 µM (inactive) | > 100 µM (inactive) | > 100 µM (inactive) | > 100 µM (inactive) | > 100 µM (inactive) | > 100 µM (inactive) | > 100 µM (inactive) | > 100 µM (inactive) | > 100 µM (inactive) | > 100 µM (inactive) | > 100 µM (inactive) | > 100 µM (inactive) | > 100 µM (inactive) | > 10 µM (inactive) |
| CN1CC=C(OP(=O)(NCc2ccccc2)N(CCCl)CCCl)CC1 (stereo not given) | > 100 µM (inactive) | > 100 µM (inactive) | > 100 µM (inactive) | > 100 µM (inactive) | > 100 µM (inactive) | > 100 µM (inactive) | > 100 µM (inactive) | > 100 µM (inactive) | > 100 µM (inactive) | > 100 µM (inactive) | > 100 µM (inactive) | > 100 µM (inactive) | > 100 µM (inactive) | > 100 µM (inactive) | > 100 µM (inactive) | > 100 µM (inactive) | > 100 µM (inactive) | 61.8 µM (inactive) | > 100 µM (inactive) | > 100 µM (inactive) |
| C=Cc1ccccc1C1C(C(=O)OCC)=C(C)N=C2OC(C(=O)OC)C(=O)N21 (stereo not given) | > 100 µM (inactive) | > 100 µM (inactive) | > 100 µM (inactive) | > 100 µM (inactive) | > 100 µM (inactive) | > 100 µM (inactive) | > 100 µM (inactive) | > 100 µM (inactive) | > 100 µM (inactive) | > 100 µM (inactive) | > 100 µM (inactive) | > 100 µM (inactive) | > 100 µM (inactive) | > 100 µM (inactive) | > 100 µM (inactive) | > 100 µM (inactive) | > 100 µM (inactive) | > 100 µM (inactive) | > 100 µM (inactive) | > 100 µM (inactive) |
